Test system: K86415-001-R-J1-PDC complex spheroids, viability
Test: Anticancer human tumor K86415-001-R-J1-PDC patient-derived lung adenocarcinoma cell line growth inhibition [RAS]
Settings: for IC50: curve of first compound; for viability, T/C: stronger effect = lower value
How it was run: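 Agents were tested in combination matrices in half-log decrements from a top concentration at or near clinical Cmax (10 microM if undetermined). Targets were multi-cell spheroids of tumour lines plus HUVEC and MSC stromal cells.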
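Note: spheroids exposed to agents for seven days before readout.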

CC(Nc1ccc2c(c1)OCCn1cc(N3C(=O)OCC3C(F)F)nc1-2)C(N)=O (centres undefined) + C=CC(=O)N1CCN(c2nc(OCC3CCCN3C)nc3c(F)c(-c4nc(N)cc(C)c4C(F)(F)F)c(Cl)cc23)C(C)C1
IC50 (second compound 0.00316 µM): < 31.6 nM | IC50 (second compound 0.01 µM): < 31.6 nM | IC50 (second compound 0.0316 µM): < 31.6 nM | IC50 (second compound 0.1 µM): < 31.6 nM | IC50 (second compound 0.316 µM): < 31.6 nM | IC50 (second compound 1 µM): < 31.6 nM | viability, T/C (second compound 0.00316 µM, first compound 0.0316 µM): 12.4% | viability, T/C (second compound 0.00316 µM, first compound 0.1 µM): 11% | viability, T/C (second compound 0.00316 µM, first compound 0.316 µM): 9.71% | viability, T/C (second compound 0.00316 µM, first compound 1 µM): 13.9% | viability, T/C (second compound 0.00316 µM, first compound 3.16 µM): 8.57% | viability, T/C (second compound 0.00316 µM, first compound 10 µM): 4.65% | viability, T/C (second compound 0.01 µM, first compound 0.0316 µM): 10.6% | viability, T/C (second compound 0.01 µM, first compound 0.1 µM): 8.09% | viability, T/C (second compound 0.01 µM, first compound 0.316 µM): 7.67% | viability, T/C (second compound 0.01 µM, first compound 1 µM): 4.13% | viability, T/C (second compound 0.01 µM, first compound 3.16 µM): 2.86% | viability, T/C (second compound 0.01 µM, first compound 10 µM): 1.6% | viability, T/C (second compound 0.0316 µM, first compound 0.0316 µM): 8.44% | viability, T/C (second compound 0.0316 µM, first compound 0.1 µM): 6.97% | viability, T/C (second compound 0.0316 µM, first compound 0.316 µM): 5.95% | viability, T/C (second compound 0.0316 µM, first compound 1 µM): 3.55% | viability, T/C (second compound 0.0316 µM, first compound 3.16 µM): 2.24% | viability, T/C (second compound 0.0316 µM, first compound 10 µM): 1.34% | viability, T/C (second compound 0.1 µM, first compound 0.0316 µM): 8.36% | viability, T/C (second compound 0.1 µM, first compound 0.1 µM): 6.36% | viability, T/C (second compound 0.1 µM, first compound 0.316 µM): 3.79% | viability, T/C (second compound 0.1 µM, first compound 1 µM): 3.04% | viability, T/C (second compound 0.1 µM, first compound 3.16 µM): 1.94% | viability, T/C (second compound 0.1 µM, first compound 10 µM): 1.11% | viability, T/C (second compound 0.316 µM, first compound 0.0316 µM): 8.27% | viability, T/C (second compound 0.316 µM, first compound 0.1 µM): 6.69% | viability, T/C (second compound 0.316 µM, first compound 0.316 µM): 4.1% | viability, T/C (second compound 0.316 µM, first compound 1 µM): 5.15% | viability, T/C (second compound 0.316 µM, first compound 3.16 µM): 2.4% | viability, T/C (second compound 0.316 µM, first compound 10 µM): 1.49% | viability, T/C (second compound 1 µM, first compound 0.0316 µM): 7.44% | viability, T/C (second compound 1 µM, first compound 0.1 µM): 6.59% | viability, T/C (second compound 1 µM, first compound 0.316 µM): 4.3% | viability, T/C (second compound 1 µM, first compound 1 µM): 2.92% | viability, T/C (second compound 1 µM, first compound 3.16 µM): 2.11% | viability, T/C (second compound 1 µM, first compound 10 µM): 1.04%

CC(C)NCC(C(=O)N1CCN(c2ncnc3c2C(C)CC3O)CC1)c1ccc(Cl)cc1 (centres undefined)
viability, T/C (compound 0.0316 µM): 109% [middle of 4 runs] | viability, T/C (compound 0.316 µM): 97.9% [middle of 4 runs] | viability, T/C (compound 1 µM): 92.2% [middle of 4 runs] | viability, T/C (compound 3.16 µM): 65% [middle of 4 runs] | viability, T/C (compound 10 µM): 49.1% [middle of 4 runs]

CCc1c2c(nc3ccc(O)cc13)-c1cc3c(c(=O)n1C2)COC(=O)[C@]3(O)CC + CCn1c(-c2cccnc2C(C)OC)c2c3cc(ccc31)N1CCOC(CC(NC(=O)C(C(C)C)N(C)C(=O)C3(F)CCN(C(=O)C#CC(C)(C)N(C)C)CC3)C(=O)N3CCCC(N3)C(=O)OCC(C)(C)C2)C1
IC50 (second compound 0.000949 µM): < 0.949 nM | IC50 (second compound 0.003 µM): < 0.949 nM | IC50 (second compound 0.00949 µM): < 0.949 nM | IC50 (second compound 0.03 µM): < 0.949 nM | IC50 (second compound 0.0949 µM): < 0.949 nM | IC50 (second compound 0.3 µM): < 0.949 nM | viability, T/C (second compound 0.000949 µM, first compound 0.000949 µM): 36.7% | viability, T/C (second compound 0.000949 µM, first compound 0.003 µM): 25.1% | viability, T/C (second compound 0.000949 µM, first compound 0.00949 µM): 10.1% | viability, T/C (second compound 0.000949 µM, first compound 0.03 µM): 12.2% | viability, T/C (second compound 0.000949 µM, first compound 0.0949 µM): 9.29% | viability, T/C (second compound 0.000949 µM, first compound 0.3 µM): 3.47% | viability, T/C (second compound 0.003 µM, first compound 0.000949 µM): 11.9% | viability, T/C (second compound 0.003 µM, first compound 0.003 µM): 13.2% | viability, T/C (second compound 0.003 µM, first compound 0.00949 µM): 9.42% | viability, T/C (second compound 0.003 µM, first compound 0.03 µM): 10.6% | viability, T/C (second compound 0.003 µM, first compound 0.0949 µM): 6.9% | viability, T/C (second compound 0.003 µM, first compound 0.3 µM): 2.68% | viability, T/C (second compound 0.00949 µM, first compound 0.000949 µM): 11.8% | viability, T/C (second compound 0.00949 µM, first compound 0.003 µM): 10.5% | viability, T/C (second compound 0.00949 µM, first compound 0.00949 µM): 10.8% | viability, T/C (second compound 0.00949 µM, first compound 0.03 µM): 9.69% | viability, T/C (second compound 0.00949 µM, first compound 0.0949 µM): 7.47% | viability, T/C (second compound 0.00949 µM, first compound 0.3 µM): 3.83% | viability, T/C (second compound 0.03 µM, first compound 0.000949 µM): 10.7% | viability, T/C (second compound 0.03 µM, first compound 0.003 µM): 11.6% | viability, T/C (second compound 0.03 µM, first compound 0.00949 µM): 8.61% | viability, T/C (second compound 0.03 µM, first compound 0.03 µM): 10.2% | viability, T/C (second compound 0.03 µM, first compound 0.0949 µM): 6.38% | viability, T/C (second compound 0.03 µM, first compound 0.3 µM): 2.86% | viability, T/C (second compound 0.0949 µM, first compound 0.000949 µM): 10.8% | viability, T/C (second compound 0.0949 µM, first compound 0.003 µM): 9.6% | viability, T/C (second compound 0.0949 µM, first compound 0.00949 µM): 10.9% | viability, T/C (second compound 0.0949 µM, first compound 0.03 µM): 9.82% | viability, T/C (second compound 0.0949 µM, first compound 0.0949 µM): 3.93% | viability, T/C (second compound 0.0949 µM, first compound 0.3 µM): 2.05% | viability, T/C (second compound 0.3 µM, first compound 0.000949 µM): 13.9% | viability, T/C (second compound 0.3 µM, first compound 0.003 µM): 9.91% | viability, T/C (second compound 0.3 µM, first compound 0.00949 µM): 7.1% | viability, T/C (second compound 0.3 µM, first compound 0.03 µM): 6.45% | viability, T/C (second compound 0.3 µM, first compound 0.0949 µM): 3.04% | viability, T/C (second compound 0.3 µM, first compound 0.3 µM): 2.24%

Reference: PubChem BioAssay AID2060893 (Molecular Pharmacology Branch, DTP, NCI, 2025)
